Experimental data as given in patent US8299070B2, “Indole compounds and pharmaceutical use thereof” (Japan Tobacco Inc., priority 2009, dated 2012).

target: T1, hITK enzyme (FLAG-tagged full-length hITK) (Homo sapiens, UniProt Q08881); assay: ITK inhibitory activity (HTRF kinase assay, biotinylated GST-SLP76 substrate); assay type: biochemical; conditions: ATP concentration of the substrate solution 6 μmol/L (Examples 380 and 381)
T1 construct: strongly expressing FLAG-tagged full-length hITK in Sf9 cells; FLAG; made in house; host or cells: Sf9 insect cells (ITK); Escherichia coli (GST-SLP76 substrate)
T1 sequence (Q08881 1-620): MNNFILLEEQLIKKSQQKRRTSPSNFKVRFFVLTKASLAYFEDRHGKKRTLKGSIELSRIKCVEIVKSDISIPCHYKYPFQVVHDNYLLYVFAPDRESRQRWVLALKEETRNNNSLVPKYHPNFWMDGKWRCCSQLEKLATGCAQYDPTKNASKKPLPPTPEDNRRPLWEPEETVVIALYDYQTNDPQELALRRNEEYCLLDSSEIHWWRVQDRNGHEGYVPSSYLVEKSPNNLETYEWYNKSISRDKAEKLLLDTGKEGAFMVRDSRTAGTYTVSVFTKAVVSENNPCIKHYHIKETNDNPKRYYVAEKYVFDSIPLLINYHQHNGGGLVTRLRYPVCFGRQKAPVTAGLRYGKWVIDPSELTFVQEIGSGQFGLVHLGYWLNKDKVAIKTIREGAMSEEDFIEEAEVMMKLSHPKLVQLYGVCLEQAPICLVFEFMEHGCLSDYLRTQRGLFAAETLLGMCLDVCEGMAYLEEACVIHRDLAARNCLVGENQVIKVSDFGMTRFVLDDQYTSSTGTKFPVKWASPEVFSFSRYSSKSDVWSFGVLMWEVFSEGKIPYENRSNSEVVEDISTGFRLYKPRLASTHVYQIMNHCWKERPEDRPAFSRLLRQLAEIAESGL
Outline: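 Sf9-expressed hITK (50 ng/mL enzyme solution) reacted 10 min at RT in MOPS pH 7.0, 10 mmol/L MgCl2, 1 mmol/L DTT with E. coli SLP76 aa95–175 substrate; substrate solution held 100 µmol/L ATP (6 µmol/L for selected compounds). HTRF 665/620 ratio, blank-corrected; IC50 interpolated between two concentrations bracketing 50% inhibition.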

Row | IC50 | Structure (SMILES)
1 | 2 nM | CC(NCCOCC(=O)O)C(=O)N(C)c1ccc2cc(-c3n[nH]c4c3CCC(C)(C)C4)[nH]c2c1 (centres unmarked) [Example 380]
2 | 2 nM | C[C@H](C(=O)N(C)c1ccc2cc(-c3n[nH]c4c3CCC(C)(C)C4)[nH]c2c1)N1CCOCC1 [Example 381]

same assay, conditions: IC50 calculated from the 2 test compound concentrations sandwiching 50% ITK inhibitory rate

Row | Structure (SMILES) | IC50
3 | CC1(C)CCc2c(-c3cc4cc(C(=O)N5CCN(C(=O)OC(C)(C)C)CC5)ccc4[nH]3)n[nH]c2C1 [Example 336] | 78 nM
4 | CO[C@H]1CC[C@@H](C(=O)N(C)c2ccc3cc(-c4n[nH]c5c4CCC(C)(CO)C5)[nH]c3c2)CC1 (some centres unmarked) [Example 346] | 5 nM
5 | COCC1(C)CCc2c(-c3cc4ccc(N(C)C(=O)CN5CCCCC5=O)cc4[nH]3)n[nH]c2C1 (centres unmarked) [Example 347] | 4 nM
6 | COCC1(C)CCc2c(-c3cc4ccc(N(C)C(=O)[C@H]5CC[C@@H](OC)CC5)cc4[nH]3)n[nH]c2C1 (some centres unmarked) [Example 348] | 8 nM
7 | CN(C(=O)C1CCCC1)c1ccc2cc(-c3n[nH]c4c3CCC(C)(CO)C4)[nH]c2c1 (centres unmarked) [Example 349] | 2 nM
8 | CN(C(=O)c1ccccc1)c1ccc2cc(-c3n[nH]c4c3CCCC4)[nH]c2c1 [Example 350] | 62 nM
9 | CCC(=O)N(C)c1ccc2cc(-c3n[nH]c4c3CCCC4)[nH]c2c1 [Example 351] | 24 nM
10 | COCC(=O)N(C)c1ccc2cc(-c3n[nH]c4c3CCCC4)[nH]c2c1 [Example 352] | 37 nM
11 | COCC(=O)N(C)c1ccc2cc(-c3n[nH]c4c3CC[C@@H](C)C4)[nH]c2c1 [Example 353] | 16 nM
12 | COCC(=O)N(C)c1ccc2cc(-c3n[nH]c4c3CCC(C)C4)[nH]c2c1 (centres unmarked) [Example 356] | 9 nM
13 | CC1CCc2c(-c3cc4ccc(N(C)C(=O)c5ccccc5)cc4[nH]3)n[nH]c2C1 (centres unmarked) [Example 357] | 29 nM
14 | C[C@@H]1CCc2c(-c3cc4ccc(N(C)C(=O)c5ccccc5)cc4[nH]3)n[nH]c2C1 [Example 358] | 38 nM
15 | CC(C)OCC(=O)N(C)c1ccc2cc(-c3n[nH]c4c3CCCC4)[nH]c2c1 [Example 359] | 21 nM
16 | CC(C)CC(=O)N(C)c1ccc2cc(-c3n[nH]c4c3CCCC4)[nH]c2c1 [Example 361] | 20 nM
17 | CN(C(=O)COc1ccccc1)c1ccc2cc(-c3n[nH]c4c3CCCC4)[nH]c2c1 [Example 362] | 12 nM
18 | CN(C(=O)OCc1ccccc1)c1ccc2cc(-c3n[nH]c4c3CC(OCc3ccccc3)C(C)(C)C4)[nH]c2c1 (centres unmarked) [Example 363] | 485 nM
19 | CCC(=O)N(C)c1ccc2cc(-c3n[nH]c4c3CC(OCc3ccccc3)C(C)(C)C4)[nH]c2c1 (centres unmarked) [Example 364] | 45 nM
20 | CCC(=O)N(C)c1ccc2cc(-c3n[nH]c4c3CC(O)CC4)[nH]c2c1 (centres unmarked) [Example 365] | 45 nM
21 | COCC(=O)N(C)c1ccc2cc(-c3n[nH]c4c3CC(O)CC4)[nH]c2c1 (centres unmarked) [Example 366] | 82 nM
22 | CN(C(=O)c1ccccc1)c1ccc2cc(-c3n[nH]c4c3CC(O)CC4)[nH]c2c1 (centres unmarked) [Example 367] | 75 nM
23 | CCC(=O)N(C)c1ccc2cc(-c3n[nH]c4c3CC(OC)CC4)[nH]c2c1 (centres unmarked) [Example 368] | 131 nM
24 | COCC(=O)N(C)c1ccc2cc(-c3n[nH]c4c3CC(OC)CC4)[nH]c2c1 (centres unmarked) [Example 369] | 207 nM
25 | COC1CCc2[nH]nc(-c3cc4ccc(N(C)C(=O)c5ccccc5)cc4[nH]3)c2C1 (centres unmarked) [Example 370] | 204 nM
26 | CCC(=O)N(C)c1ccc2cc(-c3n[nH]c4c3CC(OC(C)C)CC4)[nH]c2c1 (centres unmarked) [Example 371] | 112 nM

More lines, now with the values ahead:

Row | IC50 | Structure (SMILES)
27 | 46 nM | CC1(C)CCc2c(-c3cc4cc(C(=O)N5CCCC5)ccc4[nH]3)n[nH]c2C1 [Example 332]
28 | 106 nM | CC1(C)CCc2c(-c3cc4cc(C(=O)N5CCCCC5)ccc4[nH]3)n[nH]c2C1 [Example 333]
29 | 31 nM | CC1(C)CCc2c(-c3cc4cc(C(=O)N5CCc6[nH]cnc6C5)ccc4[nH]3)n[nH]c2C1 [Example 334]
30 | 26 nM | CC1(C)CCc2c(-c3cc4cc(C(=O)N5C[C@@H](O)[C@@H](O)C5)ccc4[nH]3)n[nH]c2C1 [Example 335]
31 | 49 nM | CCN1CCN(C(=O)c2ccc3[nH]c(-c4n[nH]c5c4CCC(C)(C)C5)cc3c2)CC1 [Example 337]
32 | 33 nM | CO[C@H]1CN(C(=O)c2ccc3[nH]c(-c4n[nH]c5c4CCC(C)(C)C5)cc3c2)C[C@H]1OC [Example 338]
33 | 842 nM | CN(C(=O)c1ccccc1)c1ccc2[nH]c(-c3n[nH]c4c3CCC(C)(C)C4)cc2c1 [Example 339]
34 | 129 nM | CCC(=O)N(C)c1ccc2[nH]c(-c3n[nH]c4c3CCC(C)(C)C4)cc2c1 [Example 340]
35 | 333 nM | CN(C(=O)C1CCOCC1)c1ccc2[nH]c(-c3n[nH]c4c3CCC(C)(C)C4)cc2c1 [Example 341]
36 | 245 nM | CC(C)CC(=O)N(C)c1ccc2[nH]c(-c3n[nH]c4c3CCC(C)(C)C4)cc2c1 [Example 342]
37 | 135 nM | CN(C(=O)CO)c1ccc2[nH]c(-c3n[nH]c4c3CCC(C)(C)C4)cc2c1 [Example 343]
38 | 278 nM | CC1(C)CCc2c(-c3cc4cc(NC(=O)c5ccccc5)ccc4[nH]3)n[nH]c2C1 [Example 344]
39 | 88 nM | CCC(=O)Nc1ccc2[nH]c(-c3n[nH]c4c3CCC(C)(C)C4)cc2c1 [Example 345]
40 | 16 nM | CCC(=O)N(C)c1ccc2cc(-c3n[nH]c4c3CC[C@@H](C)C4)[nH]c2c1 [Example 354]
41 | 9 nM | CCC(=O)N(C)c1ccc2cc(-c3n[nH]c4c3CCC(C)C4)[nH]c2c1 (centres unmarked) [Example 355]
42 | 67 nM | CC(=O)N(C)c1ccc2cc(-c3n[nH]c4c3CCCC4)[nH]c2c1 [Example 360]
43 | 11 nM | CCC(=O)N(C)c1ccc2cc(-c3n[nH]c4c3CC(OC)C(C)(C)C4)[nH]c2c1 (centres unmarked) [Example 372]
44 | 8 nM | CCC(=O)N(C)c1ccc2cc(-c3n[nH]c4c3CC(O)C(C)(C)C4)[nH]c2c1 (centres unmarked) [Example 373]
45 | 130 nM | CC(=O)Nc1ccc2cc(-c3n[nH]c4c3CCC(C)(C)C4)[nH]c2c1 [Example 374]
46 | 110 nM | C[C@@H](C(=O)Nc1ccc2cc(-c3n[nH]c4c3CCC(C)(C)C4)[nH]c2c1)N1CCOCC1 [Example 375]
47 | 2 nM | CC(NCCO)C(=O)N(C)c1ccc2cc(-c3n[nH]c4c3CCC(C)(C)C4)[nH]c2c1 (centres unmarked) [Example 376]
48 | 6 nM | CC(N)C(=O)N(C)c1ccc2cc(-c3n[nH]c4c3CCC(C)(C)C4)[nH]c2c1 (centres unmarked) [Example 377]
49 | 2 nM | CC(C(=O)N(C)c1ccc2cc(-c3n[nH]c4c3CCC(C)(C)C4)[nH]c2c1)N1CCOC(O)C1 (centres unmarked) [Example 378]
50 | 4 nM | CC(C(=O)N(C)c1ccc2cc(-c3n[nH]c4c3CCC(C)(C)C4)[nH]c2c1)N(CCO)CC(=O)O (centres unmarked) [Example 379]
